“Also recorded” adds a separate entry of the source.

Experiment [1] has as its system C3H/HeN mice. Briefly: Hair-growth effect in shaved mice. It is filed as in vivo. The protocol:
The dorsal skin of 8-week-old male C3H/HeN mice in the resting phase of the hair cycle was shaved using a hair clipper and a shaver with caution to avoid damage to the skin. The shaved area was 2×4 cm. To the shaved area, 100 μL of a 0.02% (w/v), 0.1% (w/v) or 0.5% (w/v) OSK-1 solution was applied once daily for 14 days starting from 3 days after the shaving. For the control group, physiological saline was applied, and for the positive control group, 3% (w/v) minoxidil was applied. The day of shaving was designated as Day 0. On Day 3, Day 7, Day 10, Day 14 and Day 17, the percentage of the area of hair regrowth relative to the entire shaved area in each mouse was scored according to the following criteria: 0% was defined as score 0, 20% or less was defined as score 1, 40% or less was defined as score 2, 60% or less was defined as score 3, 80% or less was defined as score 4, and 100% or less was defined as score 5. In addition, 10 strands of newly grown hair in the shaved area of each mouse were pulled out on Day 17, the length of each strand of newly grown hair was measured under a stereomicroscope, and the measured lengths were summed as the hair length (mm) of each animal.

The subject of experiment [2] is beagles. Kind of experiment: Adjuvant effect in dogs (anti-Ang II antibody titer after Ang II-KLH vaccine). The experiment is classed as in vivo. The note with it: Ang II-KLH 25 μg/animal + OSK-1 500 μg/animal intracutaneously twice at a 2-week interval. The protocol:
The adjuvant effect of OSK-1 was compared with that of the conventional Freund's adjuvant in dogs. Ang II-KLH (angiotensin II-keyhole limpet hemocyanin) as a vaccine (25 μg/animal) and OSK-1 (500 μg/animal) or Freund's adjuvant (250 μL/animal) as an adjuvant were intracutaneously administered to beagles twice at a 2-week interval (2 animals per group). For the Freund's adjuvant group, complete Freund's adjuvant was used at the first administration, and incomplete Freund's adjuvant was used at the second administration. Blood was drawn before the first administration and 2 and 4 weeks after the first administration, and the anti-Ang II antibody titer was measured.
The serum separated from the blood was serially diluted in 5% skim milk/PBS, and the diluted sera were added to an Ang II-BSA-coated 96-well ELISA plate. The plate was allowed to stand at 4° C. overnight. The wells were washed with PBS-T, an HRP-labeled anti-mouse IgG antibody diluted in 5% skim milk/PBS was added to the wells. The plate was incubated with agitation at room temperature for 3 hours. The wells were washed with PBS-T, and a TMB solution was added to the wells. The plate was allowed to stand under protection from light for 30 minutes, and 0.5 N H2SO4 was added to the wells to stop the reaction. The absorbance at 450 nm was measured and used for antibody titer comparison.

In experiment [3] the test system is inflammasomes. Briefly: Inflammasome activation: IL-1β production in THP-1 cells with or without LPS priming, cathepsin B inhibitor or caspase-1 inhibitor. It is filed as cell-based, human. The protocol: THP-1 cells were suspended at 1×10^6 cells/mL in RPMI1640 medium containing 1 μg/mL LPS and 10% FBS, and incubated in a CO2 incubator for 3 hours for cell priming. The cell suspension was centrifugated, the cells were resuspended at 1×10^6 cells/mL in RPMI1640 medium containing 10% FBS, and the cell suspension was added to a 96-well plate at 100 μL/well. The cathepsin B inhibitor Ca-074-Me (final concentration: 10 μM), the caspase-1 inhibitor Z-YVAD-FMK (final concentration: 10 μM) or the medium was added to the wells. After that, OSK-1 or the medium was added to the wells, and the cells were cultured in a CO2 incubator. After 16 hours, the culture supernatant was harvested, and the cytokine concentrations in the supernatant were measured by ELISA.

The subject of experiment [4] is THP-1 cells. Briefly: CD86 and CD54 expression in THP-1 cells (flow cytometry, RFI). The experiment is classed as cell-based, human. The note with it: overnight culture, relative fluorescence intensity. How it is done: THP-1 cells were seeded at a density of 2.0×10^5 cells/mL in 50 mL of RPMI1640 medium containing 10% FBS and 0.05 mM mercaptoethanol in a 75-cm^2 flask, and precultured for 48 hours.
The precultured THP-1 cells were harvested by centrifugation and suspended at 2.0×10^6 cells/mL in RPMI1640 medium containing 10% FBS and 0.05 mM mercaptoethanol, and the cell suspension was added to a 24-well plate at 500 μL/well. Test peptides were separately dissolved in the same medium as above, and 500 μL of each of the solutions was added to separate wells containing the cell suspension.
After overnight culture, the cells were harvested by centrifugation and washed twice with PBS containing 0.1% BSA (FACS buffer). The cells were then dispersed in 600 μL of FACS buffer containing 0.01% human γ-globulin solution (Sigma, G2388), and incubated at 4° C. for 10 minutes for blocking of Fc receptors.
After that, the cell suspension was divided into three 180-μL aliquots in 1.5-mL tubes, the tubes were centrifuged, and the cell pellets were prepared for the reaction with antibodies. To the cell pellets, FITC-labeled antibody solutions separately diluted to appropriate concentrations in FACS buffer were added in a volume of 50 μL, and incubation was performed at 4° C. for 30 minutes. The antibodies used were CD86 antibody (Pharmingen; Cat#555657), CD54 antibody (Dako; Cat# F7143) and isotype control (Mouse IgG) antibody (Dako; Cat#X0927). After the 30-minute incubation, the cells were harvested by centrifugation and washed twice with FACS buffer. The cells harvested by centrifugation were dispersed in 200 μL of FACS buffer containing 0.625 μg/mL propidium iodide, and the expression levels of the cell surface antigens on 1×10^4 viable cells were measured by flow cytometry. Forward and side scatter gating was not used for the analysis, and the relative fluorescence intensity (RFI) was calculated from the measured mean fluorescence intensities (MFI) by the following formula. […]
When the viability of the non-treated control cells (vehicle treatment cells) was 90% or more, the test was considered valid. In the case where the cell viability at a particular sample concentration used in the test was lower than 50%, the data of the CD54 level at the concentration was excluded from the evaluation.

Experiment [5] deals with LPS-primed RAW 264.7 cells. Kind of experiment: Cytokine production in LPS-primed RAW 264.7 cells (ELISA). The note with it: about 16 hours. The experiment is classed as cell-based, mouse. How it is done:
RAW 264.7 cells were suspended at 1×10^6 cells/mL in DMEM medium containing 50 ng/mL LPS and 10% FBS, and incubated in a CO2 incubator for 3 hours for cell priming. The cell suspension was centrifugated, the cells were resuspended at 1×10^6 cells/mL in DMEM medium containing 10% FBS, and the cell suspension was added to a 24-well plate at 500 μL/well. An OSK-1 solution was prepared at a 2-fold higher concentration than the final concentration in DMEM medium containing 10% FBS and added to the plate at 500 μL/well. After about 16 hours, the culture supernatant was harvested, and the cytokine concentrations in the supernatant were measured by ELISA.

Regarding “ELKLIFLHRLKRLRKRLKRK (Ac-ELKLIFLHRLKRLRKRLKRK-NH2) [OSK-1]”, in experiment [1] (0.5% OSK-1 group, Day 17, compared with 3% minoxidil group), the hair length entry was “almost comparable to those in the 3% minoxidil group”. The hair regrowth score result in experiment [1] (0.5% OSK-1 group, compared with 3% minoxidil group) is “almost comparable to those in the 3% minoxidil group”. For the same sequence, the hair growth result in experiment [1] (100 μL of 0.02%, 0.1% or 0.5% (w/v) solution on shaved dorsal skin once daily for 14 days) was “promote hair growth in a concentration dependent manner”. Moreover, in experiment [2], the “anti-Ang II antibody titer” value is recorded as “increase in the anti-Ang II antibody titer was observed”. In addition, the IL-1β production result was “induced the production of IL-1β only in the LPS-primed THP-1 cells” in experiment [3] (LPS-primed THP-1 cells versus non-primed THP-1 cells, 16 hours); “also inhibited by Z-YVAD-FMK” in experiment [3] (LPS-primed THP-1 cells, in the presence of caspase-1 inhibitor Z-YVAD-FMK 10 μM); “inhibited by Ca-074-Me” in experiment [3] (LPS-primed THP-1 cells, in the presence of cathepsin B inhibitor Ca-074-Me 10 μM). Besides, in experiment [4], the “expression of CD54” value is “strongly induced; also recorded: comparable or superior to that of muramyl dipeptide (MDP); also recorded: more highly active for inducing CD54 expression than SR-07 and SR-08”. In addition, the “expression of CD86” value in experiment [4] is “strongly induced; also recorded: comparable or superior to that of muramyl dipeptide (MDP)”. Moreover, the “production of the cytokines (IL-1β, IL-18, TNFα and IL-6)” value in experiment [5] is “induced the production of the cytokines in the LPS-primed RAW 264.7 cells in an OSK-1 concentration dependent manner”.

Source of the values: patent US10112978B2, “Peptide and use thereof” (OSAKA UNIVERSITY, priority 2014, dated 2018).
